This is an account of results in ChEMBL document CHEMBL3507680, “University of Dundee, Gates Library screen for HepG2 cell viability”.

The series in a line: Human HepG2 cell viability assay in 384 well format. Format: toxicity, cell-based. On the set-up: dose 125 nL, time 70.5 hour; concentration not given beside the values. The settings on record: HepG2 cells, read-out: Inhibition.
For the compound `CCc1n[nH]c(C2CN(C(=O)c3ccc(NC4CC4)nc3)CCO2)n1` (stereo not given), the cytotoxicity at 70.5 h is -7.92%.

Turning to `Cc1nnc(CN(C)CCc2nc(-c3cccc(Cl)c3)no2)n1C`, the cytotoxicity at 70.5 h was -13.1%.

For the compound `COc1ccc(COCC(=O)NC2CCc3nc(C)cn3C2)cc1` (stereo not given), the cytotoxicity at 70.5 h was -2.95%.

Regarding `Cc1cnn(CC(C)NCc2ccc(OCc3ccncc3)cc2)c1` (stereo not given), the cytotoxicity at 70.5 h came out at 30.2%.

In the case of `CC(C)=CCC/C(C)=C\CNCc1ccco1`, the cytotoxicity at 70.5 h is 2.6%.

For `O[C@@H]1C[C@@H](c2nc(-c3cccnc3)no2)N(C2CCOCC2)C1`, the cytotoxicity at 70.5 h turned out to be 16.4%.

Take `CN1CC2(CCCN(c3cc(N4CCCCC4)ncn3)C2)OC1=O` (stereo not given): the cytotoxicity at 70.5 h stood at 12.1%.

Consider `COCCC(=O)N1CCC(Nc2ncc(Cl)cn2)CC1`, for which the cytotoxicity at 70.5 h came to 0.73%.

In the case of `COc1cccc(-n2cc(-c3ccnc(N[C@@H](CO)C(C)C)n3)cn2)c1`, the cytotoxicity at 70.5 h was found to be 13.3%.

`Cc1ccc2c(c1)C1(CCNCC1)CC2N1CCOCC1` (stereo not given): the cytotoxicity at 70.5 h was found to be 1.67%.

Regarding `CC(C)CN(C(=O)COc1ccc(C(N)=O)cc1)C1CCN(C)CC1`, the cytotoxicity at 70.5 h is -4.39%.

For the compound `c1cnc(N2C[C@H]3CCC[C@@H](CN4CCCC4)[C@H]3C2)nc1`, the cytotoxicity at 70.5 h amounted to 22.9%.

As to `CC(C)(C)Nc1c(C2CCN(C(=O)C(C)(C)C)CC2)nc2ccccn12`, the cytotoxicity at 70.5 h is -4.87%.

For `CC1CCN(CCNC(=O)C(C)n2cncn2)CC1` (stereo not given), the cytotoxicity at 70.5 h is -2.14%.

For the compound `Cc1cc(C)n(-c2ccc(N3CCC4(CC3)OCCO4)nc2)n1`, the cytotoxicity at 70.5 h worked out at 3.59%.

As to `O=C(c1[nH]nc(C2CC2)c1Cl)N1CCN(S(=O)(=O)c2ccccc2)CC1`, the cytotoxicity at 70.5 h is 18.5%.

Regarding `CCc1noc(CNC2CCCN(Cc3noc(C4CC4)n3)C2)n1` (stereo not given), the cytotoxicity at 70.5 h was -5.98%.

Consider `Cc1ccc([C@]2(O)CC[C@H]3CN(Cc4ccncc4)C[C@H]32)nc1`, for which the cytotoxicity at 70.5 h stood at 36%.

As to `O=C1CCN(C(=O)NCCCc2ccc(Cl)cc2Cl)CCN1`, the cytotoxicity at 70.5 h is -7.65%.

For `N#Cc1ccc(CS(=O)(=O)NC(=O)c2ccc3c(c2)COC3)cc1`, the cytotoxicity at 70.5 h was found to be 14.9%.

In the case of `COc1cccc(C(=O)N2CC[C@@H]3[C@H](CC2)N(C)CCS3(=O)=O)c1`, the cytotoxicity at 70.5 h is -5.98%.

Take `CCC(=O)N1CCN(C(=O)NC2CCc3ccccc3C2)CC1` (stereo not given): the cytotoxicity at 70.5 h is -4.1%.

On to `CCn1c(CN2CCN(CCO)CC2)nc2c(F)cccc21`, for which the cytotoxicity at 70.5 h is -4.39%.

`O=C(NCCn1nc(-n2cncn2)ccc1=O)c1ccccc1Br`: the cytotoxicity at 70.5 h is -5.84%.

Take `CCn1cc2c(n1)C(COC)CN(c1ccc(C)nn1)C2` (stereo not given): the cytotoxicity at 70.5 h is -7.13%.

Turning to `COc1ccnc(N(C)Cc2c(C)noc2C)n1`, the cytotoxicity at 70.5 h is -3.59%.

In the case of `CCOc1cc(=O)n2c(c1C(=O)OCc1ccc(OC)cc1)CCCC2`, the cytotoxicity at 70.5 h is -14.9%.

As for `CCc1ccc(CN2CCN(c3ccc(C#N)cc3)C(=O)C2)nc1`, the cytotoxicity at 70.5 h was -10.5%.

As for `CCCN(CC1CC1)C(=O)Cn1ccccc1=O`, the cytotoxicity at 70.5 h was -3.4%.

`Cc1cc(C(F)(F)F)nn1C(C)C(=O)Nc1ccc(Cl)cn1` (stereo not given): the cytotoxicity at 70.5 h was -6.74%.

Take `Cc1sc(-c2ccco2)nc1C(=O)N1CCCC1Cn1cccn1` (stereo not given): the cytotoxicity at 70.5 h was -1.73%.

On to `NC(=O)c1csc(N2CCN(C3CCc4ccccc4C3)CC2)n1` (stereo not given), for which the cytotoxicity at 70.5 h is -14.7%.

On to `O=C(NCCn1ccc(-c2ccncc2)n1)C1CC1`, for which the cytotoxicity at 70.5 h was -12%.

Regarding `Cc1csc(NC(=O)NCCCN2CCC(C(N)=O)CC2)n1`, the cytotoxicity at 70.5 h was -16.3%.

For `CCN(C(C)=O)C(c1ccc(Cl)cc1)c1ccccn1` (stereo not given), the cytotoxicity at 70.5 h is -14.6%.

In the case of `O=C(CCNc1ccccc1)NC1CCN(C(=O)C2CCCCC2)CC1`, the cytotoxicity at 70.5 h was -5.78%.

On to `COC[C@@H]1CC[C@H]2[C@H](CCN2S(=O)(=O)c2ccc(F)cc2)O1`, for which the cytotoxicity at 70.5 h was -28.6%.

As for `CC(C)c1nc2n(n1)CC(NCc1cc3ccccc3o1)CC2` (stereo not given), the cytotoxicity at 70.5 h came out at 12.7%.

In the case of `Cc1ccc(NC2CCN(C(=O)c3c(C)nn(C)c3Cl)CC2)nn1`, the cytotoxicity at 70.5 h was -2.32%.

Consider `CN(Cc1cccnc1)C[C@H]1OC[C@@H]2CCN(C(=O)C3CC3)C[C@@H]21`, for which the cytotoxicity at 70.5 h was -9.16%.

With `COC[C@@]12CCC[C@@H]1CN(C(=O)N1CCCC1)C2`, the cytotoxicity at 70.5 h is -6.53%.

In the case of `Cc1cc(NCc2csc(-c3ccsc3)n2)no1`, the cytotoxicity at 70.5 h was found to be 0.878%.

Turning to `O=C(NCCNC(=O)c1scnc1Cl)c1cccs1`, the cytotoxicity at 70.5 h is -14.2%.

As to `CCc1nnsc1C(=O)NCC1CN(CC(C)C)CCO1` (stereo not given), the cytotoxicity at 70.5 h was found to be 22.5%.

Consider `c1ccc(NCc2cn3c(n2)CN(Cc2cccs2)CC3)nc1`, for which the cytotoxicity at 70.5 h came out at 8.31%.

On to `COc1ccc(C2CCCCCN2CCCNS(C)(=O)=O)cc1` (stereo not given), for which the cytotoxicity at 70.5 h is -6.03%.

In the case of `CCCc1n[nH]c(C2CN(C(=O)c3cccnc3N(C)C)CCO2)n1` (stereo not given), the cytotoxicity at 70.5 h is -0.878%.

As to `O=C(c1cnccn1)N1CCCC2(CCN(Cc3ccsc3)C2)C1` (stereo not given), the cytotoxicity at 70.5 h was -5.33%.

Turning to `Cc1cc(O)n(-c2ccc3nnc(C)n3n2)n1`, the cytotoxicity at 70.5 h was -19.5%.

Regarding `CN1CC(=O)N(c2cnn(C)c2)CC12CCN(Cc1ccccc1)C2` (stereo not given), the cytotoxicity at 70.5 h was 0.248%.

Turning to `O=C(CN1CCCCCC1=O)NC1CCc2nccn2C1` (stereo not given), the cytotoxicity at 70.5 h was -8.44%.

In the case of `CCN(Cc1ccco1)C(C)c1nc(C(C)(C)C)no1` (stereo not given), the cytotoxicity at 70.5 h is -3.44%.

On to `Cc1ccccc1OCC(O)C(=O)N1CCC2(CC1)CN(C)C(=O)O2` (stereo not given), for which the cytotoxicity at 70.5 h is -4.24%.

With `Cc1nn(C)c2cn(CC(=O)NC3CCSCC3)nc12`, the cytotoxicity at 70.5 h is -0.476%.

For `COCCC1COC2(CCN(C(=O)c3ccccc3)CC2)C1` (stereo not given), the cytotoxicity at 70.5 h is -7.59%.

`COCCn1ccc2ccc(C(=O)O)cc21`: the cytotoxicity at 70.5 h is -9.99%.

In the case of `NC(=O)c1c(-c2ccc(Cl)cc2Cl)csc1NC(=O)CCCC(=O)O`, the cytotoxicity at 70.5 h was 4.32%.

Consider `COCCC(=O)N1CCCC(CCc2ccc(F)c(F)c2)C1` (stereo not given), for which the cytotoxicity at 70.5 h was -9.08%.

Take `COc1ccc(C2SCC(=O)N2c2ncc(C)s2)cc1` (stereo not given): the cytotoxicity at 70.5 h was -1.35%.

With `COc1ccccc1C1Cn2c(C)cnc2CN1Cc1ccc(C)nc1` (stereo not given), the cytotoxicity at 70.5 h amounted to 22.5%.

Regarding `COc1ncccc1CN1CC[C@H]2[C@H]1CCN2CCN(C)C`, the cytotoxicity at 70.5 h is -1.63%.

Regarding `Cc1ccccc1-c1cncc(C2CCN(C(C)C)CC2)n1`, the cytotoxicity at 70.5 h is -22.4%.

Regarding `CCOc1ccccc1-n1c(CNC)n[nH]c1=O`, the cytotoxicity at 70.5 h is -2.54%.

On to `CC1CN(CC(=O)NC(=O)NCc2ccccc2)CCO1` (stereo not given), for which the cytotoxicity at 70.5 h came out at 7.19%.

As to `COCCN1CCC(CNC(=O)c2cc(Cl)c[nH]2)CC1`, the cytotoxicity at 70.5 h was -11.1%.

Take `N#Cc1cccc(CN2CC3(CCCCN3c3cncnc3)CC2=O)c1` (stereo not given): the cytotoxicity at 70.5 h was -0.331%.

With `CCCN(Cc1cccnc1)C(=O)C1CCS(=O)(=O)CC1`, the cytotoxicity at 70.5 h stood at 6.55%.

Regarding `COCc1cnc2n1CCN(C(=O)c1cnc3ccccc3c1)C2C` (stereo not given), the cytotoxicity at 70.5 h is -9.53%.

Take `CCSc1nnc(N(CCC#N)CCC#N)s1`: the cytotoxicity at 70.5 h is 1.21%.

In the case of `COc1ccc(C(O)CNc2c(C#N)c(=O)n(C)c(=O)n2C)cc1` (stereo not given), the cytotoxicity at 70.5 h was determined as 3.78%.

With `CCC(CNS(=O)(=O)c1c[nH]cn1)Oc1ccccc1F` (stereo not given), the cytotoxicity at 70.5 h was -2.67%.

As for `CC(C)(C)OC(=O)NC1CCC(NC(=O)c2ccc[nH]2)CC1` (stereo not given), the cytotoxicity at 70.5 h is -6.62%.

As for `Cc1cc(C)n(C2CN(CC(O)c3ccc(C(F)(F)F)cc3)C2)n1` (stereo not given), the cytotoxicity at 70.5 h is -4.01%.

For `CCOCC1CN(S(=O)(=O)C2CC2)Cc2ncn(CC3CC3)c21` (stereo not given), the cytotoxicity at 70.5 h is -4.92%.

In the case of `Cc1ccc(NC(=O)N(CCO)Cc2ccsc2)cc1`, the cytotoxicity at 70.5 h is -0.584%.

For the compound `CN1CCN(S(=O)(=O)C2CC2)Cc2cccnc21`, the cytotoxicity at 70.5 h is -0.334%.

`CC(C)c1cc(NC2CCCN(C(=O)c3cccs3)C2)ncn1` (stereo not given): the cytotoxicity at 70.5 h is 2.55%.

Consider `COC(=O)c1cccn1C1CCN(Cc2cccc(C(N)=O)c2)CC1`, for which the cytotoxicity at 70.5 h is -0.0643%.

`COc1cc(C)sc1C(=O)NCCC(=O)N(C)Cc1ccccc1`: the cytotoxicity at 70.5 h was -3.28%.

Turning to `CC(C)Cn1ccnc1CNC(=O)NC(C)(C)c1nccs1`, the cytotoxicity at 70.5 h was 19.7%.

For `CCn1cc(CN2C[C@@H]3CCCN3C[C@H]2CCSC)c(C)n1`, the cytotoxicity at 70.5 h was -4.8%.

For `O=C(NCCNc1cnccn1)NCC1CCS(=O)(=O)C1` (stereo not given), the cytotoxicity at 70.5 h is -7.83%.

Turning to `CCCN1CC2(CCN(c3ccc(C(C)=O)cn3)CC2)CC1C(=O)O` (stereo not given), the cytotoxicity at 70.5 h is -9.66%.

`COc1cc(C)sc1C(=O)N1CC(c2cccnc2)C1`: the cytotoxicity at 70.5 h was -3.92%.

`CCC(C(=O)Nc1ccc2nc(C)oc2c1)N1CCCC1=O` (stereo not given): the cytotoxicity at 70.5 h is 20.5%.

In the case of `CC1CN(C(=O)Nc2cc(C(F)(F)F)c[nH]c2=O)CCO1` (stereo not given), the cytotoxicity at 70.5 h is -8.88%.

As to `CC(=O)NCCC(=O)NCc1cccnc1-n1cnc2ccccc21`, the cytotoxicity at 70.5 h is -8.92%.

On to `c1cc(N2CCCC2c2cnccn2)ncn1` (stereo not given), for which the cytotoxicity at 70.5 h was -10%.

With `COc1ccc(C(CO)NC(=O)Nc2cccc(F)c2)cc1` (stereo not given), the cytotoxicity at 70.5 h is -4.24%.

Regarding `CCS(=O)(=O)N1C[C@@H](c2cc(O)nc(C)n2)[C@H](c2ccccc2F)C1`, the cytotoxicity at 70.5 h was found to be 13.7%.

With `CN(C)c1ccc(C(=O)N2CCCC2c2noc(C3CC3)n2)nn1` (stereo not given), the cytotoxicity at 70.5 h worked out at 13.8%.

`O=c1ccc(-c2ccccc2F)nn1CCN1CCCS1(=O)=O`: the cytotoxicity at 70.5 h was -2.96%.

In the case of `CC(C)NC(=O)c1nc(COc2ccc3c(c2)OCO3)no1`, the cytotoxicity at 70.5 h was -8.71%.

As to `Cc1nc(COCc2nc3c(o2)CN(C(=O)c2ccc[nH]2)C3)cs1`, the cytotoxicity at 70.5 h was -3.29%.

On to `Cc1cnn(CC2CCCN2C(=O)c2cc(O)nc3ccccc23)c1` (stereo not given), for which the cytotoxicity at 70.5 h is -7.86%.

Regarding `CN1CCCC(CNC(=O)N2CCN(Cc3ccon3)CC2)C1` (stereo not given), the cytotoxicity at 70.5 h is -0.171%.

With `Cc1nc(Nc2cnccn2)cc(C2CN(C(C)C)C2)n1`, the cytotoxicity at 70.5 h is -6.87%.

As for `Cc1ccccc1C(=O)N1CCCn2cnc(CN3CCCC3=O)c2C1`, the cytotoxicity at 70.5 h was -4.3%.

In the case of `OCc1ccc(N2CCN(c3ncccn3)CC2)c(F)c1`, the cytotoxicity at 70.5 h is -5.65%.

On to `O=C(CCCc1nc2ccccc2[nH]1)N1CCCC1c1ccccn1` (stereo not given), for which the cytotoxicity at 70.5 h stood at 0.793%.
